Like-named read-outs stand apart in the source and are kept apart here.
Columns and labels:
human CB1 receptor [1] = molecular target: T1, human CB1 receptor (Homo sapiens, UniProt P21554); assay: [35S] GTPγS binding on membranes of CHO cells expressing the human CB1 receptor (agonism); format: biochemical; parameters: expressed in transfected cells; membrane preparation
Procedure, shortened: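 Membranes from human CB1-expressing CHO cells (5 μg/well) incubated with test compound and [35S]GTPγS in 50 mM Tris pH 7.4, 100 mM NaCl, 3 mM MgCl2, 0.2 mM EGTA, 0.04% BSA for 45 min at 37 °C. Bound label collected by filtration, scintillation counted; EC50 from curve fits.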

human CB1 receptor [2] = molecular target: T1, human CB1 receptor; assay: Human CB1 receptor binding, [3H] CP-55,940 displacement on HEK cell membranes; parameters: expressed in transfected cells; host or cells: HEK cells, doxycycline-induced; membrane preparation
Procedure, shortened: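 Radioligand displacement: [3H] CP-55,940 at […] final, 1 μg membrane protein per well from HEK cells with tetracycline-inducible human CB1, 60 min at room temperature, pH 7.4 Tris/NaCl/MgCl2/EGTA/BSA buffer. 50 μM WIN-55,212-2 set nonspecific binding; bound label filtered, counted, and fitted for EC50 and Ki values.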

[3] = GTPγS EC50, human CB1, CHO cell membranes
[4] = human CB1, CHO cell membranes, read-out: GTPγS EC50

T1 sequence (P21554 whole entry): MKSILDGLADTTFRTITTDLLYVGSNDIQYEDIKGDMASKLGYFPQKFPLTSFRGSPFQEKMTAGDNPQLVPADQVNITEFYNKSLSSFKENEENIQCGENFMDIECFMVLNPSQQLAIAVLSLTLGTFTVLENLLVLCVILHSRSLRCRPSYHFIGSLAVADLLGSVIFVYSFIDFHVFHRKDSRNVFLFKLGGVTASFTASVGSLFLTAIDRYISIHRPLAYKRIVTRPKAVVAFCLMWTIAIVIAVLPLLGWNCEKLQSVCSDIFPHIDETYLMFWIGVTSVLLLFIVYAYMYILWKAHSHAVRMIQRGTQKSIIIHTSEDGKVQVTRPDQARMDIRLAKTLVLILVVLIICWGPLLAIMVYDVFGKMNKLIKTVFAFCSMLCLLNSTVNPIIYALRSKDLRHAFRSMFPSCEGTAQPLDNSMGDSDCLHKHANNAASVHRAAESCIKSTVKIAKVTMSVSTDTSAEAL

SMILES | EC50 (human CB1 receptor [1]; [3]) [nM] | Ki (human CB1 receptor [2]; CB1 Ki) [nM] | EC50 (human CB1 receptor [1]; [4]) [nM] | Ki (human CB1 receptor [2]; read-out: CB1 Ki) [nM]
CC(C)(C)[C@H](NC(=O)c1nn(Cc2ccc(C#N)cc2)c2c(F)cccc12)C(=O)NCCO [Example 10, 1-(4-cyanobenzyl)-7-fluoro-N-[(1S)-1-{[(2-hydroxyethyl)amino]carbonyl}-2,2-dimethylpropyl]-1H-indazole-3-carboxamide] | 37.5 | 1.91 | – | –
CC(C)(C)C(NC(=O)c1nn(Cc2ccc(C#N)cc2)c2c(Cl)cccc12)C(=O)NCCCO (stereo not drawn) [Example 200] | 35 | 4.8 | – | –
CC(C)(C)[C@H](NC(=O)c1nn(Cc2ccc(C#N)cc2F)c2ccccc12)C(=O)NCCNS(=O)(=O)c1ccc(C#N)cc1 [Example 265] | – | – | 82 | 13.1
CC(C)(C)[C@H](NC(=O)c1nn(Cc2ccc(F)cc2)c2ccccc12)C(=O)N[C@@H](CO)C(N)=O [Example 230] | 31.4 | 6.5 | – | –
CC(C)(C)C(NC(=O)c1nn(Cc2ccc(F)cc2)c2ccc(F)cc12)C(=O)NC1CC1 (stereo not drawn) [Example 171] | 0.44 | 0.42 | – | –
CC(C)(C)[C@H](NC(=O)c1nn(Cc2ccc(C#N)cc2)c2c(F)cccc12)C(=O)NC1CC1 [Example 108] | 27 | 3.78 | – | –
CC(C)(C)[C@H](NC(=O)c1nn(Cc2ccc(F)cc2)c2ccccc12)C(=O)NCC(=O)NC[C@@H](O)CO [Example 523] | – | – | 2.8 | 5.22
CC(C)(C)C(NC(=O)c1nn(Cc2ccccc2)c2ccc(-c3ncco3)cc12)C(N)=O (stereo not drawn) [Example 35] | – | – | 271 | 35.3
CC(C)(C)[C@H](NC(=O)c1nn(Cc2ccc(F)cc2)c2ccccc12)C(=O)NCc1nnc(C(=O)NCCO)o1 [Example 462] | – | – | 13 | 2.29
CC(C)(C)C(NC(=O)c1nn(Cc2ccc(F)cc2)c2ccc(F)cc12)C(=O)NCCO (stereo not drawn) [Example 172] | 0.42 | 0.42 | – | –
CC(C)(C)[C@H](NC(=O)c1nn(Cc2ccc(C#N)cc2F)c2c(F)c(F)ccc12)C(N)=O [Example 358] | 7.46 | 4.89 | – | –
CC(C)(C)[C@H](NC(=O)c1nn(Cc2ccc(F)cc2)c2ccccc12)C(=O)NCCNS(=O)(=O)c1ccc(C#N)cc1 [Example 266] | – | – | 4.34 | 0.94
CC(C)(C)[C@H](NC(=O)c1nn(Cc2ccc(F)cc2)c2c(F)c(F)ccc12)C(=O)NCCS(C)(=O)=O [Example 326] | 53.2 | 15.8 | – | –
CC(C)(C)[C@H](NC(=O)c1nn(Cc2ccc(C#N)cc2)c2c(F)cccc12)C(=O)NCC(N)=O [Example 110] | 237 | 28.9 | – | –
CC(C)(C)[C@H](NC(=O)c1nn(Cc2ccc(F)cc2)c2ccccc12)C(=O)N[C@H]1CC[C@@H](O)C1 [Example 288] | 9.53 | 1.18 | – | –
CCNC(=O)OC1CCN(C(=O)[C@@H](NC(=O)c2nn(Cc3ccc(F)cc3)c3ccccc23)C(C)(C)C)CC1 [Example 303] | – | – | 11 | 2.27
COC(=O)[C@@H](O)CNC(=O)[C@@H](NC(=O)c1nn(Cc2ccc(F)cc2)c2ccccc12)C(C)(C)C [Example 238] | 25.7 | 6.46 | – | –
COC(=O)[C@H](CO)NC(=O)[C@@H](NC(=O)c1nn(Cc2ccc(F)cc2)c2ccccc12)C(C)(C)C [Example 236] | 3.91 | 0.94 | – | –
CC(C)(C)[C@H](NC(=O)c1nn(Cc2ccc(F)cc2)c2c(F)c(F)ccc12)C(N)=O [Example 282] | 0.78 | 0.17 | – | –
CC(C)(C)C(NC(=O)c1nn(Cc2ccc(C#N)cc2F)c2ccccc12)c1nnc(N)o1 (stereo not drawn) [Example 95] | – | – | 13.7 | 2.22
CC(C)(C)[C@H](NC(=O)c1nn(Cc2ccc(F)cc2)c2ccccc12)C(=O)NC(CO)CO [Example 241] | 5.72 | 1.65 | – | –

SMILES | EC50 (human CB1 receptor [1]; [3]) [nM] | Ki (human CB1 receptor [2]; CB1 Ki) [nM] | EC50 (human CB1 receptor [1]; [4]) [nM] | Ki (human CB1 receptor [2]; read-out: CB1 Ki) [nM]
CC(C)(C)[C@H](NC(=O)c1nn(Cc2ccc(C#N)cc2)c2ccccc12)C(=O)NCCNS(=O)(=O)C1CC1 [Example 97] | – | – | 16.7 | 1.04
CC(C)(C)[C@H](NC(=O)c1nn(Cc2ccc(C#N)cc2)c2cc(F)ccc12)C(N)=O [Example 300] | 121 | 5.85 | – | –
CC(C)(C)C(NC(=O)c1nn(Cc2ccc(F)cc2)c2ccccc12)C(=O)NC1CC1 (stereo not drawn) [Example 80] | 1.82 | 0.21 | – | –
CC(C)(C)C(NC(=O)c1nn(Cc2ccc(F)cc2)c2ccccc12)C(=O)NCCNC(N)=O (stereo not drawn) [Example 85] | 16.1 | 1.72 | – | –
CC(C)(C)[C@H](NC(=O)c1nn(Cc2ccc(F)cc2)c2ccccc12)C(=O)N[C@H](CO)C(N)=O [Example 246] | 69 | 6.58 | – | –
CC(C)(C)[C@H](NC(=O)c1nn(Cc2ccc(C#N)cc2F)c2c(F)c(F)ccc12)C(=O)NC1CC1 [Example 374] | 12.5 | 7.33 | – | –
COC(=O)[C@@H](CO)NC(=O)[C@@H](NC(=O)c1nn(Cc2ccc(F)cc2)c2ccccc12)C(C)(C)C [Example 234] | 36.1 | 13.4 | – | –
CC(C)(C)[C@H](NC(=O)c1nn(Cc2ccc(F)cc2)c2c(F)cc(Cl)cc12)C(=O)NCCS(N)(=O)=O [Example 497] | 59.5 | 16.7 | – | –
CC(C)(C)[C@H](NC(=O)c1nn(Cc2ccc(F)cc2)c2ccccc12)C(=O)N1CC(F)(F)C1 [Example 330] | 0.41 | 0.2 | – | –
CC(C)(C)C(NC(=O)c1nn(Cc2ccc(F)cc2)c2c(Cl)cccc12)C(=O)NCC(N)=O (stereo not drawn) [Example 185] | 10.2 | 0.51 | – | –
CC(C)(C)C(NC(=O)c1nn(Cc2ccc(C#N)cc2F)c2ccccc12)C(=O)NCCNC(N)=O (stereo not drawn) [Example 94] | 77 | 27.5 | – | –
CC(C)(C)C(NC(=O)c1nn(Cc2ccc(C#N)cc2F)c2ccccc12)c1nnc(NC(=O)C2CC2)o1 (stereo not drawn) [Example 88] | – | – | 132 | 15.4
CC(C)(C)[C@H](NC(=O)c1nn(Cc2ccc(F)cc2)c2ccccc12)C(=O)NCC1=NCCN1 [Example 305] | 86.4 | 18 | – | –
CC(C)(C)[C@H](NC(=O)c1nn(Cc2ccc(F)cc2)c2ccccc12)C(=O)NCc1cnn2cccnc12 [Example 417] | – | – | 25.7 | 7.84
CC(C)(C)[C@H](NC(=O)c1nn(Cc2ccc(F)cc2)c2ccccc12)C(=O)NCCC#N [Example 271] | 24.9 | 2.91 | – | –
CC(C)(C)[C@H](NC(=O)c1nn(Cc2ccc(C#N)cc2F)c2c(F)cccc12)C(N)=O [Example 368] | 4.55 | 2 | – | –
CC(C)(C)[C@H](NC(=O)c1nn(Cc2ccc(F)cc2)c2c(F)c(F)ccc12)C(=O)NCC(N)=O [Example 321] | 16.6 | 1.58 | – | –
CCOC(=O)c1nc(CNC(=O)C(NC(=O)c2nn(Cc3ccc(F)cc3)c3ccccc23)C(C)(C)C)no1 (stereo not drawn) [Example 135] | – | – | 14.3 | 3.47
CC(C)(C)[C@H](NC(=O)c1nn(Cc2ccc(F)cc2)c2ccccc12)C(=O)N1CCN(C(=O)CCC(N)=O)CC1 [Example 228] | – | – | 15.1 | 4.26
CC(C)(C)[C@H](NC(=O)c1nn(Cc2ccc(C#N)cc2)c2cc(F)ccc12)C(=O)NCCO [Example 295] | 64.3 | 9.17 | – | –
CC(C)(C)[C@H](NC(=O)c1nn(Cc2ccc(F)cc2)c2ccccc12)C(=O)N1CC(CNC(N)=O)C1 [Example 346] | – | – | 12.1 | 5.14
